“And” between values parts separate entries of the source, which are not always exact repeats. Equal entries are not always repeated. Where two headings read alike, the source gives them in different places.
What was measured:
[1] = system: CUG/GUG vs AUG start codon luciferase reporters in HEK293T cells; test: Near-cognate AUG starting codon fidelity reporter assay (GUG, CUG vs AUG); type: cell-based; conditions: for CUG vs AUG (%): CUG start codon reporter relative to AUG reporter (AUG = 100); for CUG vs AUG (%) / GUG vs AUG (%): compound at 20uM (summary head), single-experiment calculation; for GUG vs AUG (%): GUG start codon reporter relative to AUG reporter (AUG = 100); for average CUG and GUG / average CUG and GUG relative to DMSO / CUG Average / GUG Average: NUG experiment; for CUG Average: CUG vs AUG reporter; for GUG Average: GUG vs AUG reporter; for NUG (Final data, Fig. 1E): average CUG and GUG relative to DMSO, 20 µM overnight; for GUG vs AUG data (%): individual repeat; for GUG vs AUG (%) Average: summary average of repeats, DMSO control average […]
Procedure: We next considered the importance of eIF1A in controlling start codon fidelity in yeast and mammalian cells (Martin-Marcos et al, [2011]; Martin-Marcos et al, [2017]; Sehrawat et al, [2019]; She et al, [2023]) and tested how inhibition of eIF1A by 1Ais affects the initiation from near-cognate AUG. The effect of 1Ais was analyzed using firefly luciferase reporters bearing either AUG (control), CUG, or GUG as the exclusive translation initiation sites. Co-transfected GFP reporter served as an internal control for transfection efficiency.
For the near-cognate AUG Starting codon fidelity reporter assay, HEK293T cells were transfected with 100 ng of the previously described luciferase reporter constructs driven either by AUG, CUG, and GUG (Tang et al, [2017]) together with GFP expressing plasmid (20 ng) as normalizing control. Luciferase and GFP levels were determined as described above.
Appendix Figure S1: (A) HEK293T cells were transfected with Luciferase reporter genes with either CUG or AUG as their exclusive starting codon. 6 hours after transfection, cells were exposed to 1Ais, and the luminescence from all constructs was measured after overnight incubation. Bars represent the ratio between luminescence from the AUG starting codon and CUG after normalization with co-transfected GFP; Error bars represent SEM, * denotes p<0.05 (T-test comparing to DMSO control), n=≥4 independent biological replicates.

eIF1A = biological target: T1, eIF1A (Homo sapiens, UniProt P47813); type: binding; conditions: for fluorescence ratio, eIF1A: background-corrected, relative to DMSO or lowest 1Ai concentration, replicate columns
T1 construct: His-bdSUMO (cleaved yes); made in house; host or cells: E. coli BL-21

RPS10 = biological target: T2, RPS10 (Homo sapiens, UniProt P46783); type: binding
T2 construct: made in house; host or cells: E. coli BL-21

[2] = system: IRF7 5'UTR firefly luciferase reporter in HEK293T cells; conditions: for Reference vs IRF7 (Final data, Fig. 1E): 1/Result, relative to DMSO; for LONG (summary - All), normalized to DMSO: Long reporter; for LONG (summary - All), normalized to DMSO / SHORT (summary - All), normalized to DMSO: individual replicates, outliers excluded, DMSO = 1; for SHORT (summary - All), normalized to DMSO: Short reporter; for average ( long vs short ratio): summary - All;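 as to all read-outs here: luciferase signal corrected by a co-transfected GFP reporter for transfection efficiency, read after overnight compound exposure, with Long and Short reporters differing in 5'UTR length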
[3] = system: cap-proximal AUG GFP reporter in HEK293T cells; type: cell-based; conditions: GFP WB densitometry; 20 µM overnight; dmso 0.965946
Description: Translation from an AUG preceded by a very short 5'UTR (less than 30 nt) is usually inefficient and frequently bypassed, resulting in initiation from a downstream AUG, a phenomenon known as leaky scanning. […] To examine the impact of 1Ais on short 5'UTR initiation, we used a GFP reporter gene containing an AUG located 16 nt downstream from the 5' end followed by a second in-frame downstream AUG (Fig. 1F; Appendix Fig. S1B). Cells were transfected with this GFP reporter gene followed by exposure to DMSO (vehicle) and 1Ais. Initiations from upstream (US) or downstream (DS) AUGs were determined by western blot (WB) with anti-GFP antibodies and the ratio between the US and DS AUG was determined.
For the analysis of translation from very short 5'UTR and Leaky scanning, HEK293T cells were transfected with a GFP (20 ng/well) reporter gene driven by a cap-proximal and downstream AUGs (Elfakess et al, [2011]) together with a luciferase reporter gene (100 ng/well) as normalizing control and treated with 20 µM of 1Ais as described above. GFP levels were determined by Western blot (WB) (GFP antibody, Abcam #ab290) and quantified by densitometry (ImageJ) and normalized to the measured luciferase activity.
HEK293T cells were transfected with the GFP reporter gene schematically shown on the top. The first
AUG is […] from the 5’ end and the downstream AUG is in the same frame. Six hours after transfection, cells were treated with 1Ais. After overnight exposure to 1Ais, GFP expression was analyzed by WB using anti -GFP antibodies.
US/DS ratio was determined by densitometry and represents the long protein expression (upstream AUG, US) vs the […]
biological replicates. (C-D) Analysis of reporter genes mRNA levels after 1Ais treatment.

[4] = eIF1A, from the titration data, read-out: IC50 (eIF1A titration block)
[5] = summary table, fluorescence binding assay, read-out: IC50 concentration (µM), WT eIF1A
[6] = read-out: IC50 (line under RPS10 binding data)
[7] = summary table, fluorescence binding assay, read-out: IC50 concentration (µM), RPS10
[8] = summary table, fluorescence binding assay

T1 sequence (P47813 whole entry): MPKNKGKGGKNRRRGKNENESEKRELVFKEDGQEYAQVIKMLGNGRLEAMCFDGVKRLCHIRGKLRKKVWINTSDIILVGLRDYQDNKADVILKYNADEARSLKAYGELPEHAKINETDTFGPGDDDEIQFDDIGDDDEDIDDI

Structure (SMILES) | average CUG and GUG [1] | average CUG and GUG relative to DMSO [1] | CUG Average [1] | GUG Average [1] | NUG (Final data, Fig. 1E) [1] | fluorescence ratio, eIF1A (eIF1A; 1Ai conc. 0.25 uM) | fluorescence ratio, eIF1A (eIF1A; 1Ai conc. 1 uM) | fluorescence ratio, eIF1A (eIF1A; 1Ai conc. 2 uM) | fluorescence ratio, eIF1A (eIF1A; 1Ai conc. 4 uM) | fluorescence ratio, eIF1A (eIF1A; 1Ai conc. 8 uM) | fluorescence ratio, eIF1A (eIF1A; 1Ai conc. 16 uM) | fluorescence ratio, eIF1A (eIF1A; 1Ai conc. 32 uM) | fluorescence ratio, eIF1A (eIF1A; 1Ai conc. 64 uM) | fluorescence ratio, eIF1A (eIF1A; 1Ai conc. 256 uM) | RPS10 fluorescence ratio to control (RPS10; 1Ai conc. 0.25 uM) | RPS10 fluorescence ratio to control (RPS10; 1Ai conc. 0.5 uM) | RPS10 fluorescence ratio to control (RPS10; 1Ai conc. 1 uM) | RPS10 fluorescence ratio to control (RPS10; 1Ai conc. 2 uM) | RPS10 fluorescence ratio to control (RPS10; 1Ai conc. 4 uM) | RPS10 fluorescence ratio to control (RPS10; 1Ai conc. 8 uM) | other results
O=C(COc1ccccc1[N+](=O)[O-])NCc1ccc(-c2ccc(Br)cc2)o1 [1Ai-4700] | 6.461 | 1.433 | 9.432 | 3.49 | 1.433 | 1.051 and 0.9016 | 1.126 and 0.8562 | 1.098 and 0.832 | 1.037 and 0.7686 | 0.8525 and 0.6514 | 0.7753 and 0.6291 | 0.583 and 0.5184 | 0.4409 and 0.3702 | 0.3305 and 0.2635 | 1 | 0.9948 | 1.113 | 1.071 | 0.9943 | 0.904 | CUG vs AUG (%) [1]: 5.455%; GUG vs AUG (%) [1]: 0.6501%; GUG vs AUG data (%) ([1]; compound at 20uM): 3.85% and 2.62% and 3.02% and 4.47%; GUG vs AUG (%) Average ([1]; compound at 20uM): 3.49%; fluorescence ratio, eIF1A (eIF1A; 1Ai conc. 0.5 uM): 1.104 and 0.9037; IC50 (eIF1A; [4]): 20.9 µM; IC50 (eIF1A; [5]): 20.9 µM; RPS10 fluorescence ratio to control (RPS10; 1Ai conc. 16 uM): 0.762; RPS10 fluorescence ratio to control (RPS10; 1Ai conc. 32 uM): 0.6123; RPS10 fluorescence ratio to control (RPS10; 1Ai conc. 64 uM): 0.5202; RPS10 fluorescence ratio to control (RPS10; 1Ai conc. 256 uM): 0.4416; IC50 (RPS10; [6]): 4.9 µM; IC50 (RPS10; read-out: RPS10 IC50): 4.9 µM; IC50 (RPS10; [7]): 4.9 µM; Reference vs IRF7 (Final data, Fig. 1E) ([2]; 20 µM): 2.452; LONG (summary - All), normalized to DMSO ([2]; 20 µM): 0.84 and 0.38 and 0.21 and 0.60; SHORT (summary - All), normalized to DMSO ([2]; 20 µM): 1.10 and 0.65 and 2.34 and 0.87; average ( long vs short ratio) ([2]; 20 µM): 0.408; US/DS ratio, average [3]: 0.7947
C=CCNC(=O)CN1CCN(Cc2nc3cc(-c4ccc(Cl)cc4)sc3c(=O)[nH]2)CC1 [1Ai-1524] | 7.9532 | 1.763 | 12.0643 | 3.842 | 1.763 | 1.099 and 1 | 1.12 and 1.013 | 1.158 and 0.9647 | 1.086 and 0.8847 | 0.9254 and 0.8076 | 0.9496 and 0.7767 | 1.01 and 0.848 | 0.9931 and 0.7702 | 1.036 and 1.149 | 1.173 | 1.067 | 0.76 | 0.8336 | 0.607 | 0.7612 | CUG vs AUG (%) [1]: 6.424%; GUG vs AUG (%) [1]: 0.742%; GUG vs AUG data (%) ([1]; compound at 20uM): 4.35% and 2.64% and 2.99% and 5.39%; GUG vs AUG (%) Average ([1]; compound at 20uM): 3.84%; fluorescence ratio, eIF1A (eIF1A; 1Ai conc. 0.5 uM): 1.123 and 1.057; WT eIF1A IC50 (eIF1A; fluorescence binding): No binding; IC50 concentration (µM), WT eIF1A (eIF1A; [8]): No binding; RPS10 fluorescence ratio to control (RPS10; 1Ai conc. 16 uM): 0.4083; RPS10 fluorescence ratio to control (RPS10; 1Ai conc. 32 uM): 0.3654; RPS10 fluorescence ratio to control (RPS10; 1Ai conc. 64 uM): 0.4197; RPS10 fluorescence ratio to control (RPS10; 1Ai conc. 256 uM): 0.05131; IC50 (RPS10; [6]): 16.8 µM; IC50 (RPS10; read-out: RPS10 IC50): 16.8 µM; IC50 (RPS10; [7]): 16.8 µM; Reference vs IRF7 (Final data, Fig. 1E) ([2]; 20 µM): 1.878; LONG (summary - All), normalized to DMSO ([2]; 20 µM): 0.62 and 0.21 and 0.43 and 0.52; SHORT (summary - All), normalized to DMSO ([2]; 20 µM): 0.50 and 0.66 and 0.41; average ( long vs short ratio) ([2]; 20 µM): 0.848; US/DS ratio, average [3]: 0.7201
CN(C)CC1CCn2cc(c3ccccc32)C2=C(C(=O)NC2=O)c2cn(c3ccccc23)CCO1 (stereo not drawn) [1Ai-5662] | 5.24 | 1.162 | 7.645 | 2.835 | 1.162 | 0.7967 and 0.9449 | 0.7317 and 0.9217 | 1.065 and 0.7855 | 1.002 and 0.7942 | 0.774 and 0.658 | 0.5642 and 0.6667 | 0.2341 and 0.4609 | 0.1593 and 0.2928 | 0.1171 and 0.07826 | 0.8917 | 1.048 | 0.937 | 0.8646 | 0.7525 | 0.6979 | GUG vs AUG data (%) ([1]; compound at 10uM): 1.99% and 4.83% and 1.69%; GUG vs AUG (%) Average ([1]; compound at 10uM): 2.83%; fluorescence ratio, eIF1A (eIF1A; 1Ai conc. 0.5 uM, listed as 5662): 0.8569 and 0.971; IC50 (eIF1A; [4]): 20.9 µM; IC50 (eIF1A; [5]): 20.9 µM; RPS10 fluorescence ratio to control (RPS10; 1Ai conc. 16 uM): 0.6531; RPS10 fluorescence ratio to control (RPS10; 1Ai conc. 32 uM): 0.6137; RPS10 fluorescence ratio to control (RPS10; 1Ai conc. 64 uM): 0.4569; RPS10 fluorescence ratio to control (RPS10; 1Ai conc. 256 uM): 0.295; RPS10 IC50 (RPS10; fluorescence binding): No binding; IC50 concentration (µM), RPS10 (RPS10; [8]): No binding; Reference vs IRF7 (Final data, Fig. 1E) ([2]; 20 µM): 0.936; LONG (summary - All), normalized to DMSO ([2]; 10 µM): 1.11 and 0.84 and 0.46 and 0.50; SHORT (summary - All), normalized to DMSO ([2]; 10 µM): 0.67 and 0.80 and 0.62 and 0.63; average ( long vs short ratio) ([2]; 10 µM): 1.068; US/DS ratio, average [3]: 3.065
